Data as given in patent US8846698B2, “Pyrrolo[2,3-d]pyrimidine tropomysin-related kinase inhibitors” (Pfizer Limited, priority 2011, dated 2014).

The compounds below were run against T1, TRKA (Homo sapiens (Human), UniProt P04629) (assay: Cell based DiscoveRx PathHunter antagonist assay, TRKA cell line). Settings: read-out: TrkA cell potency.
Experimental: (§1) After the Detection Reagent addition, plates are covered and incubated at room temperature for 60 minutes. […] Test compound data are expressed as percentage inhibition defined by HPE and ZPE values for each plate. Percentage inhibition in the presence of test compound is plotted against compound concentration on a log scale to determine an IC50 from the resultant sigmoid curve. Cell Based Assays were carried out using Cell lines from DiscoveRx utilising their PathHunter technology and reagents in an antagonist assay:
(§2) The assays are based upon DiscoveRx's proprietary Enzyme Fragment Complementation (EFC) technology. In the case of the TRK cell lines, the enzyme acceptor (EA) protein is fused to a SH2 protein and the TRK receptor of interest has been tagged with a Prolink tag.
(§3) Upon neurotrophin binding, the TRK receptor becomes phosphorylated, and the tagged SH2 protein binds.
(§4) This means that the IC50 is a good measure of affinity and should be unaffected by concentration neurotrophin stimulant.
(§5) Cryopreserved PathHunter cells are used from either in-house produced batches or bulk batches bought directly from DiscoveRx. Cryopreserved cells are resuscitated, spun 1000 rpm for 4 min to remove freezing media, and resuspended in MEM+0.5% horse serum (both Invitrogen) to 5e^5 cells/ml. The cells are then plated using a Multidrop into Greiner white tissue culture treated plates at 20 ul/well and incubated for 24 h at 37° C., 5% CO2, high humidity. On the day of the assay, the cell plates are allowed to cool to room temperature for 30 min prior to the assay.
(§6) Plates containing 1 ul of serially diluted compound, standard and HPE/ZPE are diluted 1/66 in assay buffer (PBS minus Ca^2+, minus Mg^2+ with 0.05% pluronic F127) using a Wellmate. […] The plates are left at room temperature for a further 2 hours before addition of 10 ul of the DiscoveRx PathHunter detection reagent (made up by adding 1 part Galacton Star, 5 parts Emerald II and 19 parts Cell Assay Buffer as per the manufacturer's instructions).
(§7) After reagent addition, plates are covered and incubated at room temperature for 60 minutes. Luminescence signal is read using an Envision. Test compound data are expressed as percentage inhibition defined by HPE and ZPE values for each plate. Percentage inhibition in the presence of test compound is plotted against compound concentration on a log scale to determine an […] from the resultant sigmoid curve.
Target sequence in this assay (P04629 33-796): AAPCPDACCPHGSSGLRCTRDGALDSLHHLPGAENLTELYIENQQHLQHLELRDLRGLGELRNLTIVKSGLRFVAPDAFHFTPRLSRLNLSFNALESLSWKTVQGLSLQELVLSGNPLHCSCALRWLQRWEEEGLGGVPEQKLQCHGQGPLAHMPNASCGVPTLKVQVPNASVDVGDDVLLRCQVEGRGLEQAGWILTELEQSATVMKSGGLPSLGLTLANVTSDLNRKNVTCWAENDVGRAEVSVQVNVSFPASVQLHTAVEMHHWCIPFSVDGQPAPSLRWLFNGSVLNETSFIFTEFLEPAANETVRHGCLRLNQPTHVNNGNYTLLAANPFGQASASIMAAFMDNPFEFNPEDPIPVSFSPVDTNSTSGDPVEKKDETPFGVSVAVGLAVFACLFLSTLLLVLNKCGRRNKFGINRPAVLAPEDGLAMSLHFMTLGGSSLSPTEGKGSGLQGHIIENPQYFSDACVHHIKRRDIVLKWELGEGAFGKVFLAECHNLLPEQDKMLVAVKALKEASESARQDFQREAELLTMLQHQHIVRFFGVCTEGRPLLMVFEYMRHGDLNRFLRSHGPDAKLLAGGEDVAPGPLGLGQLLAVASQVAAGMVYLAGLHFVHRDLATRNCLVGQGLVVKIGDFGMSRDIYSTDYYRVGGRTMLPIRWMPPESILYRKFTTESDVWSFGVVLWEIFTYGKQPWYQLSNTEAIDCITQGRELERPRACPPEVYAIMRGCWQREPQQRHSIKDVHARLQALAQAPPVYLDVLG

Row | IC50 [nM] | Compound
1 | 2250 | CC(CO)n1cc(C(=O)c2cncc(NC(=O)Cc3ccc(F)cn3)c2)c2cnc(N)nc21 (single isomer, unassigned) [Example 37, N-(5-{[2-amino-7-(2-hydroxy-1-methylethyl)-7H-pyrrolo[2,3-d]pyrimidin-5-yl]carbonyl}pyridin-3-yl)-2-(5-fluoropyridin-2-yl)acetamide]

Each compound was assayed against TRKB (Homo sapiens (Human), UniProt Q16620) (assay: cell-based). Settings: TrkB cell potency, TRKB PathHunter cell line.
Experimental: as §1, §2, §3, §4, §5, §6, §7

Chain of TRKB (Q16620 32-822 limits assumed): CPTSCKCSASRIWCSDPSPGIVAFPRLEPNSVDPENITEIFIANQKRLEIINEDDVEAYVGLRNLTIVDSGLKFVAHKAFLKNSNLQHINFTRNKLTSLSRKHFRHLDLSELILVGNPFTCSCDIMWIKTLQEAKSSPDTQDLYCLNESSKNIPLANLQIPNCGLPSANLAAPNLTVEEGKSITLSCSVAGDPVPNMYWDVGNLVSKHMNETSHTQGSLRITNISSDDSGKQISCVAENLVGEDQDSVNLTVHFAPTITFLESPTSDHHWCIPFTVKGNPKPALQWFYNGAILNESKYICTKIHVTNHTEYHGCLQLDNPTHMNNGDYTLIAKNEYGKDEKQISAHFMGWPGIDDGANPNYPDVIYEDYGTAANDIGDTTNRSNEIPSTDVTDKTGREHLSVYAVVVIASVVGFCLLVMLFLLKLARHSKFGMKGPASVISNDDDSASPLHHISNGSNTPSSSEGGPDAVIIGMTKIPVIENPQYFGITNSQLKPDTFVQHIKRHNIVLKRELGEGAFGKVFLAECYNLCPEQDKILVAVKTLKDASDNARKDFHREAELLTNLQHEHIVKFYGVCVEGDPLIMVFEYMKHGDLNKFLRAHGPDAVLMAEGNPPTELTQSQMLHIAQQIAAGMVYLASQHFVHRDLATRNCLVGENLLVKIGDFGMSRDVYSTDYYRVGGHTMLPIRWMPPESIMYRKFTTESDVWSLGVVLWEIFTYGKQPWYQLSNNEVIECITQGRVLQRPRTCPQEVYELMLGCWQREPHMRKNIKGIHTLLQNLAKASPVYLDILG

Row | IC50 [nM] | Compound
2 | 571 | CC(CO)n1cc(C(=O)c2cncc(NC(=O)Cc3ccc(F)cn3)c2)c2cnc(N)nc21 (single isomer, unassigned) [Example 37, N-(5-{[2-amino-7-(2-hydroxy-1-methylethyl)-7H-pyrrolo[2,3-d]pyrimidin-5-yl]carbonyl}pyridin-3-yl)-2-(5-fluoropyridin-2-yl)acetamide]

The compounds below were run against T1, TRKA (assay: Isolated TRK enzyme assay (HTRF KinEASE-TK), TRKA). Settings: isolated TRKA enzyme; read-out: TrkA enzyme potency.
Format: biochemical
Target sequence in this assay (P04629 441-796): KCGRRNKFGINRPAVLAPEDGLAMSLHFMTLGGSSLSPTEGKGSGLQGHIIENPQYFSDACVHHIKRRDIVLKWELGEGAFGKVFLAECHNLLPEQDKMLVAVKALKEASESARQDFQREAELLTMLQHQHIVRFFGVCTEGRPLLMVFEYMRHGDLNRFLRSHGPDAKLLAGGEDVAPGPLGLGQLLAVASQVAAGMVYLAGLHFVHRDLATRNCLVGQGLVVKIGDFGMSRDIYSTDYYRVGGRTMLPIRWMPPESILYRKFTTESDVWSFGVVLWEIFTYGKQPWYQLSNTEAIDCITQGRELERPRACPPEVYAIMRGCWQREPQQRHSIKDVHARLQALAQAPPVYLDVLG

Row | IC50 [nM] | Compound
3 | 67 | CC(CO)n1cc(C(=O)c2cncc(NC(=O)Cc3ccc(F)cn3)c2)c2cnc(N)nc21 (single isomer, unassigned) [Example 37, N-(5-{[2-amino-7-(2-hydroxy-1-methylethyl)-7H-pyrrolo[2,3-d]pyrimidin-5-yl]carbonyl}pyridin-3-yl)-2-(5-fluoropyridin-2-yl)acetamide]

Same assay, conditions: read-out: Trka enzyme (IC50)

Row | Compound | IC50 [nM]
4 | CC1(n2cc(C(=O)c3cncc(NC(=O)Cc4ccc(C(F)(F)F)cc4)c3)c3cncnc32)COC1 [Example 571, N-{5-[7-(3-Methyl-oxetan-3-yl)-7H-pyrrolo[2,3-d]pyrimidine-5-carbonyl]-pyridin-3-yl}-2-(4-trifluoromethyl-phenyl)-acetamide] | 2.92
5 | CC1(n2cc(C(=O)c3cncc(NC(=O)Cc4cccc(C(F)(F)F)c4)c3)c3cncnc32)COC1 [Example 572, N-{5-[7-(3-Methyl-oxetan-3-yl)-7H-pyrrolo[2,3-d]pyrimidine-5-carbonyl]-pyridin-3-yl}-2-(3-trifluoromethyl-phenyl)-acetamide] | 9.5
6 | CC1(n2cc(C(=O)c3cncc(NC(=O)Cc4ccc(C(F)(F)F)c(F)c4)c3)c3cncnc32)COC1 [Example 573, 2-(3-Fluoro-4-trifluoromethyl-phenyl)-N-{5-[7-(3-methyl-oxetan-3-yl)-7H-pyrrolo[2,3-d]pyrimidine-5-carbonyl]-pyridin-3-yl}-acetamide] | 17.9
7 | CC1(n2cc(C(=O)c3cncc(NC(=O)c4cccc(C(F)(F)F)c4)c3)c3cncnc32)COC1 [Example 574, N-{5-[7-(3-Methyl-oxetan-3-yl)-7H-pyrrolo[2,3-d]pyrimidine-5-carbonyl]-pyridin-3-yl}-3-trifluoromethyl-benzamide] | 14.2
8 | CC1(n2cc(C(=O)c3cncc(NC(=O)c4cccc(OC(F)(F)F)c4)c3)c3cncnc32)COC1 [Example 575, N-{5-[7-(3-Methyl-oxetan-3-yl)-7H-pyrrolo[2,3-d]pyrimidine-5-carbonyl]-pyridin-3-yl}-3-trifluoromethoxy-benzamide] | 3.09
9 | CC(C)(C)n1cc(C(=O)c2cncc(NC(=O)Cn3cc(C4CC4)cn3)c2)c2cnc(N)nc21 [Example 577, N-[5-(2-Amino-7-tert-butyl-7H-pyrrolo[2,3-d]pyrimidine-5-carbonyl)-pyridin-3-yl]-2-(4-cyclopropyl-pyrazol-1-yl)-acetamide] | 1.9
10 | Nc1ncc2c(C(=O)c3cncc(NC(=O)Cn4ccc(C(F)(F)F)n4)c3)cn(C34CC(C3)C4)c2n1 [Example 580, N-[5-(2-Amino-7-bicyclo[1.1.1]pent-1-yl-7H-pyrrolo[2,3-d]pyrimidine-5-carbonyl)-pyridin-3-yl]-2-(3-trifluoromethyl-pyrazol-1-yl)-acetamide] | 0.825
11 | Nc1ncc2c(C(=O)c3cncc(NC(=O)Cn4cc(C(F)(F)F)nn4)c3)cn(C34CC(C3)C4)c2n1 [Example 581, N-[5-(2-Amino-7-bicyclo[1.1.1]pent-1-yl-7H-pyrrolo[2,3-d]pyrimidine-5-carbonyl)-pyridin-3-yl]-2-(4-trifluoromethyl-[1,2,3]triazol-1-yl)-acetamide] | 3.21
12 | CC(C)n1cc(C(=O)c2c[nH]c(=O)c(NC(=O)Cc3ccc(C#N)cc3)c2)c2cncnc21 [Example 584, 2-(4-cyanophenyl)-N-(2-oxo-5-{[7-(propan-2-yl)-7H-pyrrolo[2,3-d]pyrimidin-5-yl]carbonyl}-1,2-dihydropyridin-3-yl)acetamide] | 581
13 | CC(C)n1cc(C(=O)c2c[nH]c(=O)c(NC(=O)Cc3ccc4cccnc4c3)c2)c2cncnc21 [Example 588, N-(2-oxo-5-{[7-(propan-2-yl)-7H-pyrrolo[2,3-d]pyrimidin-5-yl]carbonyl}-1,2-dihydropyridin-3-yl)-2-(quinolin-7-yl)acetamide] | 334
14 | CC(C)n1cc(C(=O)c2c[nH]c(=O)c(NC(=O)Cc3ccc(Cl)cc3)c2)c2cncnc21 [Example 589, 2-(4-chlorophenyl)-N-(2-oxo-5-{[7-(propan-2-yl)-7H-pyrrolo[2,3-d]pyrimidin-5-yl]carbonyl}-1,2-dihydropyridin-3-yl)acetamide] | 31.3

Now from value to compound:

Row | IC50 [nM] | Compound
15 | 6970 | N#Cc1ccc(CC(=O)Nc2cncc(C(=O)c3c[nH]c4ncncc34)c2)cc1 [Example 570, 2-(4-Cyano-phenyl)-N-[5-(7H-pyrrolo[2,3-d]pyrimidine-5-carbonyl)-pyridin-3-yl]-acetamide]
16 | 1000 | CC(C)n1cc(C(=O)c2c[nH]c(=O)c(NC(=O)Cc3coc(C4CC4)n3)c2)c2cncnc21 [Example 586, 2-(2-cyclopropyl-1,3-oxazol-4-yl)-N-(2-oxo-5-{[7-(propan-2-yl)-7H-pyrrolo[2,3-d]pyrimidin-5-yl]carbonyl}-1,2-dihydropyridin-3-yl)acetamide]
17 | 296 | CC(C)(CO)n1cc(C(=O)c2cncc(NC(=O)Cn3cc(C4CC4)cn3)c2)c2cnc(N)nc21 [Example 576, N-{5-[2-Amino-7-(2-hydroxy-1,1-dimethyl-ethyl)-7H-pyrrolo[2,3-d]pyrimidine-5-carbonyl]-pyridin-3-yl}-2-(4-cyclopropyl-pyrazol-1-yl)-acetamide]
18 | 142 | CC(C)n1cc(C(=O)c2c[nH]c(=O)c(NC(=O)Cn3cc(C(F)(F)F)nn3)c2)c2cncnc21 [Example 591, N-(2-oxo-5-{[7-(propan-2-yl)-7H-pyrrolo[2,3-d]pyrimidin-5-yl]carbonyl}-1,2-dihydropyridin-3-yl)-2-[4-(trifluoromethyl)-1H-1,2,3-triazol-1-yl]acetamide]
19 | 71.2 | CC(C)n1cc(C(=O)c2c[nH]c(=O)c(NC(=O)Cc3ccc(Cl)cn3)c2)c2cncnc21 [Example 590, 2-(5-chloropyridin-2-yl)-N-(2-oxo-5-{[7-(propan-2-yl)-7H-pyrrolo[2,3-d]pyrimidin-5-yl]carbonyl}-1,2-dihydropyridin-3-yl)acetamide]
20 | 36.7 | CC(C)n1cc(C(=O)c2c[nH]c(=O)c(NC(=O)COc3ccccc3OC(F)(F)F)c2)c2cncnc21 [Example 585, N-(2-oxo-5-{[7-(propan-2-yl)-7H-pyrrolo[2,3-d]pyrimidin-5-yl]carbonyl}-1,2-dihydropyridin-3-yl)-2-[2-(trifluoromethoxy)phenoxy]acetamide]
21 | 32.3 | N-(5-(7-(1,3-dihydroxy-2-methylpropan-2-yl)-7H-pyrrolo[2,3-d]pyrimidine-5-carbonyl)pyridin-3-yl)-2-(3-trifluoromethoxy)phenyl)acetamide [Example 262]
22 | 20.5 | Cc1cc(C(F)(F)F)nn1CC(=O)Nc1cc(C(=O)c2cn(C(C)C)c3ncncc23)c[nH]c1=O [Example 587, 2-[5-methyl-3-(trifluoromethyl)-1H-pyrazol-1-yl]-N-(2-oxo-5-{[7-(propan-2-yl)-7H-pyrrolo[2,3-d]pyrimidin-5-yl]carbonyl}-1,2-dihydropyridin-3-yl)acetamide]
23 | 9.79 | N#Cc1ccc(CC(=O)Nc2cncc(C(=O)c3cn(C45CC(C4)C5)c4nc(N)ncc34)c2)cc1 [Example 582, N-[5-(2-Amino-7-bicyclo[1.1.1]pent-1-yl-7H-pyrrolo[2,3-d]pyrimidine-5-carbonyl)-pyridin-3-yl]-2-(4-cyano-phenyl)-acetamide]
24 | 8.11 | CS(=O)(=O)c1cccc(CC(=O)Nc2cncc(C(=O)c3cn(C45CC(C4)C5)c4nc(N)ncc34)c2)c1 [Example 579, N-[5-(2-Amino-7-bicyclo[1.1.1]pent-1-yl-7H-pyrrolo[2,3-d]pyrimidine-5-carbonyl)-pyridin-3-yl]-2-(3-methanesulfonyl-phenyl)-acetamide]
25 | 6.07 | Nc1ncc2c(C(=O)c3cncc(NC(=O)Cc4ccc(F)cn4)c3)cn(C34CC(C3)C4)c2n1 [Example 578, N-[5-(2-Amino-7-bicyclo[1.1.1]pent-1-yl-7H-pyrrolo[2,3-d]pyrimidine-5-carbonyl)-pyridin-3-yl]-2-(5-fluoro-pyridin-2-yl)-acetamide]
26 | 0.681 | Nc1ncc2c(C(=O)c3cncc(NC(=O)Cc4ccc(Cl)cn4)c3)cn(C34CC(C3)C4)c2n1 [Example 583, N-[5-(2-Amino-7-bicyclo[1.1.1]pent-1-yl-7H-pyrrolo[2,3-d]pyrimidine-5-carbonyl)-pyridin-3-yl]-2-(5-chloro-pyridin-2-yl)-acetamide]
